Results taken from patent US9809626B2, “Antibacterial agents: salinamide derivatives” (priority 2012, dated 2017).
Converted amounts (≈) assume the structure as drawn. Like-named read-outs stand apart in the source and are kept apart here. Numbered stars: 1 amine (or outer) side, 2 acyl side, 3 side chain; on linkers, the order of the positions; unused ones are H or OH. Bridge positions count the residues as written; N and C are the ends. Square brackets hold non-standard residues; d marks the D form. Peptide text beside a SMILES is read from it. * marks the point of attachment. X7 = C[C@@H](Oc1ccc([C@H](N[*:1])C(=O)[*:2])cc1)[C@](O)(/C=C/C(=O)[*:3])CNCCCCCCNC(=O)OC(C)(C)C; X6 = C[C@@H](Oc1ccc([C@H](N[*:1])C(=O)[*:2])cc1)[C@](O)(/C=C/C(=O)[*:3])CNCCCNC(=O)OC(C)(C)C; X4 = CCCCOC[C@@](O)(/C=C/C(=O)[*:3])[C@@H](C)Oc1ccc([C@H](N[*:1])C(=O)[*:2])cc1; X2 = C[C@@H](Oc1ccc([C@H](N[*:1])C(=O)[*:2])cc1)[C@](O)(/C=C/C(=O)[*:3])CBr; X5 = C[C@@H](Oc1ccc([C@H](N[*:1])C(=O)[*:2])cc1)[C@](O)(/C=C/C(=O)[*:3])CO; Pentanoyl(2R-Me,3R-OH,4-Me) = CC(C)[C@@H](O)[C@@H](C)C(=O)*; d(aIle) = CC[C@H](C)[C@@H](N)C(=O)O; d(aThr) = C[C@@H](O)[C@@H](N)C(=O)O; NMeF = CN[C@@H](Cc1ccccc1)C(=O)O

Tests used:
Sal-resistant mutants [1] = conditions: Ebright et al., WO/2012/129173; cited from earlier work
[2] = target: Escherichia coli RNAP σ70 holoenzyme (Escherichia coli, UniProt P0A8T7+P0A8V2); assay: Fluorescence-detected RNAP assay, Escherichia coli RNAP; assay type: biochemical; conditions: refers to Table 1
Procedure: Fluorescence-detected RNAP assays with Escherichia coli RNAP were performed by a modification of the procedure of Kuhlman et al., Anal. Biochem. 324:183-190, 2004]. Reaction mixtures contained (20 μl): 0-100 nM test compound, 75 nM Escherichia coli RNAP σ^70 holoenzyme, 20 nM 384 bp DNA fragment containing the bacteriophage T4 N25 promoter, 100 μM ATP, 100 μM GTP, 100 μM UTP, 100 μM CTP, 50 mM Tris-HCl, pH 8.0, 100 mM KCl, 10 mM MgCl2, 1 mM DTT, 10 μg/ml bovine serum albumin, and 5.5% glycerol. Reaction components other than DNA and NTPs were pre-incubated for 10 min at 37° C. Reactions were carried out by addition of DNA and incubation for 5 min at 37° C., followed by addition of NTPs and incubation for 60 min at 37° C. DNA was removed by addition of 1 μl 5 mM CaCl2 and 2 U DNasel (Ambion, Inc.), followed by incubation for 90 min at 37° C. RNA was quantified by addition of 100 μl RiboGreen RNA Quantitation Reagent (Invitrogen, Inc.; 1:500 dilution in Tris-HCl, pH 8.0, 1 mM EDTA), followed by incubation for 10 min at 25° C., followed by measurement of fluorescence intensity [excitation wavelength=485 nm and emission wavelength=535 nm; QuantaMaster QM1 spectrofluorometer (PTI, Inc.)].
(§1) Half-maximal inhibitory concentrations (IC50s) were calculated by non-linear regression in SigmaPlot (SPSS, Inc.).

[3] = target: T1, Staphylococcus aureus RNAP (Staphylococcus aureus, UniProt P47768+Q2G0N5); assay: Radiochemical RNAP assay, Staphylococcus aureus RNAP; assay type: biochemical
T1 construct: made in house
T1 sequence (Q2G0N5 whole entry): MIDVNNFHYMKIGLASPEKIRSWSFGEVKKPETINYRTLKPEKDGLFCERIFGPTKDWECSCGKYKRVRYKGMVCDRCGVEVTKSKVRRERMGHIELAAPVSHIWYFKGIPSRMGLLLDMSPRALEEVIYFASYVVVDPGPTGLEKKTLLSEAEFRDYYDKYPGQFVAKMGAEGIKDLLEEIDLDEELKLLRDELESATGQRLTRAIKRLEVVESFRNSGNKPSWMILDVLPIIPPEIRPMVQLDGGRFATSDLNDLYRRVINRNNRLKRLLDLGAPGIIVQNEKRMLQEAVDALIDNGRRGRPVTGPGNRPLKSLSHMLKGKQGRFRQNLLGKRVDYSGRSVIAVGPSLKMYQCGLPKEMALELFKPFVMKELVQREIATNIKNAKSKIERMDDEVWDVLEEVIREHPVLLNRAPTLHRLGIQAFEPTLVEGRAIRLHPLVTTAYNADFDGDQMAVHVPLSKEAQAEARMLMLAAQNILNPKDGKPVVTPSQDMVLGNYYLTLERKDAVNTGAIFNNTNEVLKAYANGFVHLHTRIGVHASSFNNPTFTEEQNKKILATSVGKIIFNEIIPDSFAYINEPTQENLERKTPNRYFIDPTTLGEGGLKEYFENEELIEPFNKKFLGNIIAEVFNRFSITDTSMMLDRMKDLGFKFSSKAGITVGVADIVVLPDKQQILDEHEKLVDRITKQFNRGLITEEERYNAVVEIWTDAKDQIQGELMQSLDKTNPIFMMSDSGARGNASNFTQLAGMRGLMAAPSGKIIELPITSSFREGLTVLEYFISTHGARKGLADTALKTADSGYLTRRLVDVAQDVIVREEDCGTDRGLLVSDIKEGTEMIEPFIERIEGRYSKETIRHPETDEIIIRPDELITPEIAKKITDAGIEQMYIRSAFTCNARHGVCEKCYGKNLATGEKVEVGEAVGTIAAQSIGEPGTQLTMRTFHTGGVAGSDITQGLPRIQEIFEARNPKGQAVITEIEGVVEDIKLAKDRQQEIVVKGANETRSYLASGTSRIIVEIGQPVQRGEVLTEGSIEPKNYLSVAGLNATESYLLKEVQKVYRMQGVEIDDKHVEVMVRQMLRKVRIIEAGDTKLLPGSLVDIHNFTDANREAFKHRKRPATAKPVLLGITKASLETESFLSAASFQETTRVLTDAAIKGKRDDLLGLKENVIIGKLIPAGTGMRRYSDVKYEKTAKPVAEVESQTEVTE
T1 sequence (P47768 whole entry): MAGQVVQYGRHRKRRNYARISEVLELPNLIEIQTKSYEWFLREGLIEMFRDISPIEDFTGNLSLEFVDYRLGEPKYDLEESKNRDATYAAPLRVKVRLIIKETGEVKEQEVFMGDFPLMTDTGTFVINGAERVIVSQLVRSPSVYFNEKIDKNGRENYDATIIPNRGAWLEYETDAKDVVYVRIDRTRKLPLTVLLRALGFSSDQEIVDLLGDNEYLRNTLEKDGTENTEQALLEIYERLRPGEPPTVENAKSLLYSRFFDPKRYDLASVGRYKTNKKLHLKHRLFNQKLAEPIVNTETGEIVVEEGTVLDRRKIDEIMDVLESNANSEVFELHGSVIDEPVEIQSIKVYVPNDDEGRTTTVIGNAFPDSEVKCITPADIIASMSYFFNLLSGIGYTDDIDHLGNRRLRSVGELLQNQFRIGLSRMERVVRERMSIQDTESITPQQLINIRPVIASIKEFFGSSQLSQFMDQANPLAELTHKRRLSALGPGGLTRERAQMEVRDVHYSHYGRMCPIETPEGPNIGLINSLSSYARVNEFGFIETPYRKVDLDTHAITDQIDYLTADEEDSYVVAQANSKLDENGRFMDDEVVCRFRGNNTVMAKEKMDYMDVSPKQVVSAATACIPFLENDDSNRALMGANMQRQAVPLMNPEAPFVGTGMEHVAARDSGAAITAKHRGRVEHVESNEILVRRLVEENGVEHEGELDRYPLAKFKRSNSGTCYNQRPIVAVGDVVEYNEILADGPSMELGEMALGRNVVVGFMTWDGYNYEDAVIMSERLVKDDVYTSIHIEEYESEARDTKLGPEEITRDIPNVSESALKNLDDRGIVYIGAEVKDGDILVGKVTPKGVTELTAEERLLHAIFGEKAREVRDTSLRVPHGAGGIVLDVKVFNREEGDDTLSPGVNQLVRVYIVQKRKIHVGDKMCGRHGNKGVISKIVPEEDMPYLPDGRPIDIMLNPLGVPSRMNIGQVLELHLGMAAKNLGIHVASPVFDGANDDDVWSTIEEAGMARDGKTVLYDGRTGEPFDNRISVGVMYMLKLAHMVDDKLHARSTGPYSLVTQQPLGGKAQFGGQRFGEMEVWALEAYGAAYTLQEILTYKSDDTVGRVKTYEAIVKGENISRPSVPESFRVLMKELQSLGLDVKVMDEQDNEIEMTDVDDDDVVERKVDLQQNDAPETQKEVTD
T1 sequence (Q2FW32 whole entry, further chain): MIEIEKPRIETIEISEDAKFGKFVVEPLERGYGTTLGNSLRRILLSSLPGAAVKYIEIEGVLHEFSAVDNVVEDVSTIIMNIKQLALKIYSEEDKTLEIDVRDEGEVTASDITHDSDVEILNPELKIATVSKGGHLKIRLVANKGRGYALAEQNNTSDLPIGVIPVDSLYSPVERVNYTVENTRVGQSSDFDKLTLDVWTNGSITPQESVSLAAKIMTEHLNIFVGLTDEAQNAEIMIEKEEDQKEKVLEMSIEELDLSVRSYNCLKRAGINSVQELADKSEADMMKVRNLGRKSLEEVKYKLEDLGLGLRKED
T1 sequence (P0A0J0 whole entry, further chain): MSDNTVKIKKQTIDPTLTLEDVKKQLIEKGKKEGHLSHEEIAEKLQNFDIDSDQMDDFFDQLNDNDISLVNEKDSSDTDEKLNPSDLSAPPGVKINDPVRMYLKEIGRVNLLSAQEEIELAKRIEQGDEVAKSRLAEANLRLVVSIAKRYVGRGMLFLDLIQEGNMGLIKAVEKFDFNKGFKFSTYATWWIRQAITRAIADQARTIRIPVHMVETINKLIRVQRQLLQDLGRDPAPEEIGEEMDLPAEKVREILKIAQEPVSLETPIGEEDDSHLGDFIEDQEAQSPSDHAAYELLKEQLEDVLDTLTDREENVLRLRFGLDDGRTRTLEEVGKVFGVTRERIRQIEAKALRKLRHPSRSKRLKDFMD
Procedure: (§2) Radiochemical RNAP assays with Escherichia coli RNAP and Staphylococcus aureus RNAP were performed as follows: Reaction mixtures contained (10 μl): 0-100 μM test compound, bacterial RNAP holoenzyme [75 nM Escherichia coli RNAP holoenzyme (prepared as in Mukhopadhyay et al., Meths. Enzymol. 371:144-159, 2003) or 75 nM Staphylococcus aureus RNAP core enzyme and 300 nM Staphylococcus aureus σ^A (prepared as in Srivastava et al., Curr. Opin. Microbiol. 14:532-543, 2011)], 20 nM DNA fragment N25-lacUV5-14 [positions −100 to −1 of the bacteriophage T5 N25 promoter followed by positions +1 to +29 of the lacUV5(+10A; +15C) promoter; prepared by PCR amplification of a synthetic nontemplate-strand oligodeoxyribonucleotide], 0.5 mM ApA, 100 μM □[α^32P]UTP (0.2 Bq/fmol), 100 μM ATP, and 100 μM GTP in TB (50 mM Tris-HCl, pH 7.9, 100 mM KCl, 10 mM MgCl2, 1 mM DTT, 100 μg/ml bovine serum albumin, and 5% glycerol). […] Products were applied to 7 M urea 15% polyacrylamide (19:1 acrylamide:bisacrylamide) slab gels (Bio-Rad), electrophoresed in TBE (90 mM Tris-borate, pH 8.0, and 2 mM EDTA), and analyzed by storage-phosphor scanning (Typhoon; GE Healthcare, Inc.).
as §1

[4] = system: Vero E6 cells (ATCC CRL1586); assay: Cytotoxicity to mammalian cells in culture (CellTiter96 assay); assay type: cell-based
From the text: MICs for mammalian cells (Vero E6) in culture were quantified using CellTiter96 assay (Promega. Inc.; procedures as specified by the manufacturer).

[5] = target: T2, Escherichia coli RNAP holoenzyme (Escherichia coli, UniProt P0A8T7+P0A8V2); assay: Radiochemical RNAP assay, Escherichia coli RNAP; assay type: biochemical
T2 construct: made in house
Procedure: as §2, §1

[6] = system: human RNAP I, II, and III; assay: Radiochemical assay with human RNAP I, II, and III (HeLaScribe Nuclear Extract); assay type: biochemical
Procedure: Radiochemical assays with human RNAP I, II, and III were performed essentially as described [Sawadogo and Roeder, Cell 43:165-75, 1985]. Reaction mixtures contained (20 μl): 0-100 μM test compound, 8 U HeLaScribe Nuclear Extract (Promega, Inc.), 1 μg human placental DNA (Sigma-Aldrich), 400 μM ATP, 400 μM [α^32P]UTP (0.11 Bq/fmol), 400 μM CTP, 400 μM GTP, 50 mM Tris-HCl, pH 8.0, 7 mM HEPES-NaOH, 70 mM (NH4)2SO4, 50 mM KCl, 12 mM MgCl2, 5 mM DTT, 0.1 mM EDTA, 0.08 mM phenylmethylsulfonyl fluoride, and 16% glycerol. Reaction components other than DNA and NTPs were pre-incubated 10 min at 30° C., DNA was added and reaction mixtures were incubated 15 min at 30° C., NTPs were added and reaction mixtures were incubated 60 min at 30° C. Reaction mixtures were spotted on DE81 filter discs (Whatman, Inc.; pre-wetted with water) and incubated 1 min at room temperature. Filters were washed with 3×3 ml Na2HPO4, 2×3 ml water, and 3 ml ethanol, using a filter manifold (Hoefer, Inc.). Filters were placed in scintillation vials containing 10 ml Scintiverse BD Cocktail (Thermo Fisher, Inc.), and radioactivity was quantified by scintillation counting (LS6500; Beckman-Coulter, Inc.).
as §1

[7] = system: Haemophilus influenzae ATCC49247; assay: Antibacterial activity, broth microdilution; assay type: cell-based; conditions: Haemophilus influenzae, ATCC49247; minimal concentration resulting in ≧50% inhibition of bacterial growth
From the text: (§3) Antibacterial activity was quantified using broth microdilution [Clinical and Laboratory Standards Institute (CLSI/NCCLS), Methods for Dilution Antimicrobial Susceptibility Tests for Bacteria That Grow Aerobically; Approved Standard, Eighth Edition. CLIS Document M07-A8 (CLIS, Wayne Pa.), 2009]. Assays with Enterobacter cloacae ATCC13047, Pseudomonas aeruginosa ATCC10145, and Escherichia coli D21f2to1C, employed a starting cell density of 2-5×10^5 cfu/ml, Mueller Hinton II cation adjusted broth (BD Biosciences, Inc.), and an air atmosphere. Assays with Haemophilus influenzae ATCC49247 and Neisseria gonorrhoeae ATCC19424 employed a starting cell density of 2-5×10^5 cfu/ml, Haemophilus Test Medium broth (Barry et al., 1993) and a 5% CO2/95% air atmosphere. MIC50 was defined as the minimal concentration resulting in ≧50% inhibition of bacterial growth.

[8] = system: Neisseria gonorrhoeae ATCC19424; assay: Antibacterial activity, broth microdilution; assay type: cell-based; conditions: Neisseria gonorrhoeae, ATCC19424; minimal concentration resulting in ≧50% inhibition of bacterial growth
From the text: as §3

[9] = system: Escherichia coli D21f2tolC; assay: Antibacterial activity, broth microdilution; assay type: cell-based; conditions: for MIC50: Escherichia coli, D21F2TOLC, read-out: MIC50 Escherichia coli D21f2tolC
From the text: as §3

[10] = system: Enterobacter cloacae ATCC13047; assay: Antibacterial activity, broth microdilution; assay type: cell-based; conditions: Enterobacter cloacae, ATCC13047; minimal concentration resulting in ≧50% inhibition of bacterial growth; read-out: MIC50 Enterobacter cloacae ATCC 13047
From the text: as §3

[11] = system: Pseudomonas aeruginosa ATCC10145; assay: Antibacterial activity, broth microdilution; assay type: cell-based; conditions: Pseudomonas aeruginosa, ATCC10145; minimal concentration resulting in ≧50% inhibition of bacterial growth
From the text: as §3

Sal-resistant mutants [12] = assay: Cross-resistance of Sal-resistant mutants to other RNAP inhibitors; assay type: cell-based; conditions: disclosed herein

Compound	MIC50 [9]	MIC50 [10]	cross-resistance of Sal-resistant mutants with the compound (Sal-resistant mutants [12])	further results
ONC(=Nc1ccccc1)c1cccc(C(F)(F)F)c1 [CBR703]	–	–	–	cross-resistance of Sal-resistant mutants to the compound (Sal-resistant mutants [1]): not cross-resistant
CC[C@H](C)[C@H]1NC(=O)[C@@H](NC(=O)[C@H](C)[C@H](O)C(C)C)[C@@H](C)OC(=O)[C@@H]2COC(=O)CNC(=O)/C=C/[C@](O)(CBr)[C@@H](C)Oc3ccc(cc3)[C@H](NC1=O)C(=O)N(C)[C@@H](Cc1ccccc1)C(=O)N[C@H]([C@@H](C)O)C(=O)N2 [Sal-Br (3), Sal-Br] ({Pentanoyl(2R-Me,3R-OH,4-Me)}-T[d(aIle)][X2][NMeF][d(aThr)]S; ester 1-C; linker 3-6 via G)	0.049 µg/mL (≈ 0.0445 µM)	1.56 µg/mL (≈ 1.42 µM)	–	RNAP-inhibitory activity [2]: essentially full; IC50 [3]: 540 ± 40 nM; MIC50 Vero E6 ATCC CRL1586 ([4]; Table 3): >100 µg/mL; MIC Vero E6 cells ([4]; growth of mammalian cells in culture): > 50 µg/mL; IC50 [5]: 780 ± 50 nM; IC50 ([6]; radiochemical assay, read-out: IC50 human RNAP I, II, and III): > 100000 nM; IC50 ([6]; read-out: IC50 human RNAP I/II/III): > 100000 nM; MIC50 [7]: 6.25 µg/mL (≈ 5.68 µM); MIC50 [8]: 1.56 µg/mL (≈ 1.42 µM); antibacterial activity ([9]; refers to Table 2 (E. coli D21f2tolC and Enterobacter cloacae)): essentially full; MIC50 [11]: 50 µg/mL (≈ 45.4 µM)
CC[C@H](C)[C@H]1NC(=O)[C@@H](NC(=O)[C@H](C)[C@H](O)C(C)C)[C@@H](C)OC(=O)[C@@H]2COC(=O)CNC(=O)/C=C/[C@](O)(CNCCCNC(=O)OC(C)(C)C)[C@@H](C)Oc3ccc(cc3)[C@H](NC1=O)C(=O)N(C)[C@@H](Cc1ccccc1)C(=O)N[C@H]([C@@H](C)O)C(=O)N2 [Sal-NH(CH2)3NHBoc (7), Sal-NH(CH2)3NHBoc] ({Pentanoyl(2R-Me,3R-OH,4-Me)}-T[d(aIle)][X6][NMeF][d(aThr)]S; ester 1-C; linker 3-6 via G)	1.56 µg/mL (≈ 1.31 µM)	100 µg/mL (≈ 83.7 µM)	–	–
CC[C@H](C)[C@H]1NC(=O)[C@@H](NC(=O)[C@H](C)[C@H](O)C(C)C)[C@@H](C)OC(=O)[C@@H]2COC(=O)CNC(=O)/C=C/[C@](O)(CNCCCCCCNC(=O)OC(C)(C)C)[C@@H](C)Oc3ccc(cc3)[C@H](NC1=O)C(=O)N(C)[C@@H](Cc1ccccc1)C(=O)N[C@H]([C@@H](C)O)C(=O)N2 [Sal-NH(CH2)6NHBoc (9), Sal-NH(CH2)6NHBoc] ({Pentanoyl(2R-Me,3R-OH,4-Me)}-T[d(aIle)][X7][NMeF][d(aThr)]S; ester 1-C; linker 3-6 via G)	0.78 µg/mL (≈ 0.631 µM)	25 µg/mL (≈ 20.2 µM)	–	–
CCCCOC[C@@]1(O)/C=C/C(=O)NCC(=O)OC[C@@H]2NC(=O)[C@@H]([C@@H](C)O)NC(=O)[C@H](Cc3ccccc3)N(C)C(=O)[C@@H](NC(=O)[C@@H]([C@@H](C)CC)NC(=O)[C@@H](NC(=O)[C@H](C)[C@H](O)C(C)C)[C@@H](C)OC2=O)c2ccc(cc2)O[C@@H]1C [Sal-OBu A (5A), Sal-OBu A] ({Pentanoyl(2R-Me,3R-OH,4-Me)}-T[d(aIle)][X4][NMeF][d(aThr)]S; ester 1-C; linker 3-6 via G)	1.56 µg/mL (≈ 1.43 µM)	12.5 µg/mL (≈ 11.4 µM)	–	–
CC[C@H](C)[C@H]1NC(=O)[C@@H](NC(=O)[C@H](C)[C@H](O)C(C)C)[C@@H](C)OC(=O)[C@@H]2COC(=O)CNC(=O)/C=C/[C@](O)(CO)[C@@H](C)Oc3ccc(cc3)[C@H](NC1=O)C(=O)N(C)[C@@H](Cc1ccccc1)C(=O)N[C@H]([C@@H](C)O)C(=O)N2 [Sal-OH (4), Sal-OH] ({Pentanoyl(2R-Me,3R-OH,4-Me)}-T[d(aIle)][X5][NMeF][d(aThr)]S; ester 1-C; linker 3-6 via G)	0.78 µg/mL (≈ 0.751 µM)	25 µg/mL (≈ 24.1 µM)	–	–
CNC(=O)[C@@H](C)[C@H]1C(=O)/C(=C(O)/C=C/C(C)=C/[C@@H](C)[C@H]2O[C@@]3(C)O[C@H](C=C[C@@]34CO4)[C@@H]2C)C(=O)N1[C@@H]1CC[C@H](O)[C@H](C)O1 [streptolydigin]	–	–	do not exhibit cross-resistance	–
lipiarmycin	–	–	do not exhibit cross-resistance	–
myxopyronin	–	–	do not exhibit cross-resistance	–
